The text below walks through data of EP0326628A1, “Method for inhibiting the release of histamine” (VIPONT PHARMACEUTICAL, INC., priority 1988, dated 1989).

Read-outs that look alike come from different tables or passages of the source.

Assay [1] concerns mast cells. Kind of assay: Histamine release from rat isolated peritoneal mast cells and its inhibition. The format is cell-based, male Wistar rat. Particulars: for Histamine Release (%) / inhibition at 5 µM: Sanguinarine 5 µM. Here is the method: In exemplifying the invention, mast cells were isolated from the peritoneal fluid of male Wistar rat as described in Sugiyama, K. (1971) Japan J. Pharmacol. 21, 209-226. The mast cells were suspended in a phosphate buffered saline solution consisting of 154 mM sodium chloride, 2.7mM potassium chloride, 0.9 mM calcium chloride, 6.7 mM KH₂PO₄-Na₂HPO₄, (pH 7.3), and 0.01% bovine serum albumin obtained from Sigma.
For the determination of histamine release and its inhibition by sangainarine., mast cells at a cell density of 10⁵ cells/ml suspended in 0.5 ml of phosphate-buffered saline, were incubated at 37°C for 10 minutes with histamine releasers, more about which is stated below. Sanguinarine was added 5 minutes before the specific histamine releaser. After the action was terminated by the addition of 1.5 ml of ice-cold phosphate-buffered saline solution, the samples were centrifuged at 2,000 rpm for 15 minutes. The histamine in the supernatants and precipitates was determined according to the method of Shore, P.A., Burkhalter, A. and Cohn N.H. (1959) J. Pharmacol. Exp Ther. 127, 182-186. Release of histamine was expressed as a percentage of the total cell content. Percentages of inhibition by sanguinarine were measured according to the following equation: [formula] The sanguinarine chloride was provided from Vipont Laboratories Inc. and is manufactured in the manner disclosed above.
Histidine-rich polypetide fraction A, known as HRP(F-A) was purified from human saliva in accordance with the procedure of Sugiyama, K., Suzuki, Y and Furuta, H (1985) Life Sciences. 37, 475-480. The comparison was carried out with known histamine releasers, namely, 48/80; Concanavalin A; calcium-ionophore A23187. These releasers may be obtained from Sigma Co.
With regard to Figure 1, inhibition by sanguinarine of histamine release induced by compound 48/80 is shown. The mast cells were incubated at 37°C for 10 minutes with and without compound 48/80 in the presence of sanguinarine in varying concentrations. (●) Sanguinarine with compound 48/80 (0.5 µ g/ml), (0) Sanguinarine without compound 48/80.

The subject of assay [2] is mast cells. Particulars: release produced by compound 48/80, calcium-ionophore A23187, basic peptide 401; read-out: IC50, inhibition of histamine release; cited from earlier work.
The test system of assay [3] is mast cells. Kind of assay: Literature (Pearce et al. 1979): inhibition of histamine release produced by compound 48/80, calcium-ionophore A23187 and basic peptide 401. It counts as cell-based. As to conditions: comparison of IC50 with sanguinarine inhibited histamine release.
Assay [4] deals with mast cells. Particulars: compound 48/80; read-out: IC50, compound 48/80 induced histamine release; cited from earlier work.

Take `C[n+]1cc2c3c(ccc2c2ccc4cc5c(cc4c21)OCO5)OCO3` [Sanguinarine, sanguinarine]: the “Histamine Release (%)” value in the assay with mast cells [1] (A23187 (1 µ M)) worked out at 21.1%; in the assay on mast cells [1] (Compound 48/80 (0.5 µ g/ml)), 15.4%; in the assay on mast cells [1] (Con A (10 µg/ml) in the presence of phosphatidylserine (10 µ g/ml)) it was 27.3%; with mast cells [1] (HRP (16 µ M)) it was 17.6%; with mast cells [1] (Triton X-100 (0.01 %)), 93.8%. Further, in the assay on mast cells [1] (Rattus norvegicus, Mast cell, 10 min, compound 48/80 (0.5 µ g/ml), 37°C, 10 minutes, Figure 1, read-out: IC50 (inhibition concentration), 48/80 induced histamine release from mast cells), the IC50 was approximately 2 µM. Further, the inhibition at 5 µM is 63.4% in the assay on mast cells [1] (Rattus norvegicus, Mast cell, A23187 (1 µ M)); 78.7% in the assay on mast cells [1] (Rattus norvegicus, Mast cell, Compound 48/80 (0.5 µ g/ml)); 56.6% in the assay with mast cells [1] (Rattus norvegicus, Mast cell, Con A (10 µg/ml) in the presence of phosphatidylserine (10 µ g/ml)); 69.4% in the assay with mast cells [1] (Rattus norvegicus, Mast cell, HRP (16 µ M)); -10.6% in the assay on mast cells [1] (Rattus norvegicus, Mast cell, Triton X-100 (0.01 %)).

Turning to `O=C(O)c1cc(=O)c2c(OCC(O)COc3cccc4oc(C(=O)O)cc(=O)c34)cccc2o1` [cromoglycate], in the assay on mast cells [2], the IC50 was 10 to 1000 µM. Besides, the “times less active than sanguinarine” value in the assay with mast cells [3] was 10 to 100 times.

For the molecule `C[C@]12CCC(=O)C=C1CC[C@@H]1[C@@H]2[C@@H](O)C[C@@]2(C)[C@H]1CC[C@]2(O)C(=O)CO` [hydrocortisone], the IC50 in the assay on mast cells [4] is 2100 µM.

Turning to `COc1ccc2c(c1)c(CC(=O)O)c(C)n2C(=O)c1ccc(Cl)cc1` [indomethacin], the IC50 in the assay with mast cells [4] is 75 µM.

For the molecule `O=C([O-])c1ccccc1O.[Na+]` [sodium salicylate], in the assay on mast cells [4], the IC50 is 1600 µM.

As to `Cn1c(=O)c2[nH]cnc2n(C)c1=O` [theophylline], the IC50 in the assay with mast cells [2] is 10 to 1000 µM. Besides, in the assay with mast cells [3], the “times less active than sanguinarine” value lay within 10 to 100 times.

As usually defined, the inhibition is the drop in the measured response relative to a control, in per cent.
